# Several values for one entry are separate records, joined by “and”; a condition that tells them apart may be missing. Equal entries are not always repeated.
# Tested on: kidney tissues of treated or untreated rats
# Test: Real-time qRT-PCR of marker transcripts in kidney tissue panel, discovery stage (Table 22); for normalized Real Time PCR MUSCYCG1R DB81 seg19-20: test concentration or dose not given here; for normalized Real Time PCR RATRAB13X DB81 seg15-17: test concentration or dose not given here; for normalized Real Time PCR RATRAB13X DB81 seg22: test concentration or dose not given here; for normalized Real Time PCR W33294 DB81 seg23: test concentration or dose not given here; for normalized Real Time PCR W33294 DB81 seg44: test concentration or dose not given here
# Format: in vivo, rat
# Set-up: AI502869_DB71_seg0 normalized Real Time PCR expression: unit not given beside the values
# Conditions: for normalized Real Time PCR MMU09507_DB81_seg15 / normalized Real Time PCR MUSCYCG1R_DB81_seg19-20 / normalized Real Time PCR RATRAB13X_DB81_seg15-17 / normalized Real Time PCR RATRAB13X_DB81_seg22 / normalized Real Time PCR W33294_DB81_seg23 / normalized Real Time PCR W33294_DB81_seg44: kidney
# Outline: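 Rat kidney RNA, DNase-treated until PCR-negative, reverse transcribed with SuperscriptII; SYBR Green real-time PCR, 40 cycles, undetected samples set to Ct 41. Relative quantity from efficiency^-Ct (standard-curve efficiency), normalized to the geometric mean of four median-scaled housekeeping genes, then multiplied by a constant factor.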
# [1] = female rats, day5, listed as Gent
# [2] = rat kidney, day1, individual animals
# [3] = rat kidney, day1, individual animals (F and M)
substance,measurement,setting,value
Gentamycin,normalized Real Time PCR MMU09507_DB81_seg15,"female rats, day1",0.41 and 0.43 and 0.23
same,normalized Real Time PCR MUSCYCG1R_DB81_seg19-20,"female rats, day1",0.67 and 0.55 and 0.44
same,normalized Real Time PCR RATRAB13X_DB81_seg15-17,"female rats, day1",0.9 and 0.63 and 0.55
same,normalized Real Time PCR RATRAB13X_DB81_seg22,"female rats, day1",0.98 and 0.71 and 0.51
same,normalized Real Time PCR W33294_DB81_seg23,"female rats, day1",1 and 0.51 and 0.94
same,normalized Real Time PCR W33294_DB81_seg44,"female rats, day1",1.02 and 0.8 and 0.77
same,normalized Real Time PCR MUSCYCG1R_DB81_seg19-20,"female rats, day5",1.41
same,normalized Real Time PCR MMU09507_DB81_seg15,[1],0.78 and 0.62 and 1.13
same,normalized Real Time PCR MUSCYCG1R_DB81_seg19-20,[1],1.23 and 1.42
same,normalized Real Time PCR RATRAB13X_DB81_seg15-17,[1],1.68 and 1.5 and 1.59
same,normalized Real Time PCR RATRAB13X_DB81_seg22,[1],2.16 and 2.11 and 1.91
same,normalized Real Time PCR W33294_DB81_seg23,[1],1.64 and 1.96 and 1.51
same,normalized Real Time PCR W33294_DB81_seg44,[1],1.64 and 1.72 and 2.13
same,normalized Real Time PCR MMU09507_DB81_seg15,"female rats, day28",1.38 and 0.96 and 0.7
same,normalized Real Time PCR MUSCYCG1R_DB81_seg19-20,"female rats, day28",0.56 and 0.74 and 0.42
same,normalized Real Time PCR RATRAB13X_DB81_seg15-17,"female rats, day28",0.84 and 0.9 and 0.88
same,normalized Real Time PCR RATRAB13X_DB81_seg22,"female rats, day28",0.68 and 0.56 and 0.57
same,normalized Real Time PCR W33294_DB81_seg44,"female rats, day28",0.66 and 0.71
same,normalized Real Time PCR MMU09507_DB81_seg15,"male rats, day1",0.56 and 0.32 and 0.37
same,normalized Real Time PCR RATRAB13X_DB81_seg22,"male rats, day1",0.8 and 0.99 and 0.6
same,normalized Real Time PCR W33294_DB81_seg23,"male rats, day1",0.57 and 0.74 and 0.61
same,normalized Real Time PCR W33294_DB81_seg44,"male rats, day1",0.77 and 0.5 and 0.64
same,normalized Real Time PCR MMU09507_DB81_seg15,"male rats, day5",0.71 and 0.41 and 0.68
same,normalized Real Time PCR MUSCYCG1R_DB81_seg19-20,"male rats, day5",1.43 and 1
same,normalized Real Time PCR RATRAB13X_DB81_seg15-17,"male rats, day5",1.25 and 0.76 and 1.35
same,normalized Real Time PCR RATRAB13X_DB81_seg22,"male rats, day5",1.25 and 0.77 and 1.16
same,normalized Real Time PCR W33294_DB81_seg23,"male rats, day5",1.25 and 0.82 and 0.95
same,normalized Real Time PCR W33294_DB81_seg44,"male rats, day5",1.12 and 0.93 and 0.94
same,normalized Real Time PCR MMU09507_DB81_seg15,"male rats, day28",0.82 and 0.59 and 0.84
same,normalized Real Time PCR MUSCYCG1R_DB81_seg19-20,"male rats, day28",0.79 and 0.4 and 0.55
same,normalized Real Time PCR RATRAB13X_DB81_seg15-17,"male rats, day28",0.77 and 0.76 and 1.22
same,normalized Real Time PCR RATRAB13X_DB81_seg22,"male rats, day28",0.91 and 0.88 and 0.58
same,normalized Real Time PCR W33294_DB81_seg23,"male rats, day28",0.57 and 0.8 and 0.67
same,AA686189_DB71_seg6 normalized Real Time PCR expression,[2],1.19 and 0.65 and 1.07 and 0.94 and 1.04 and 0.6
same,AA799594_DB71_seg0 normalized Real Time PCR expression,[2],1.25 and 0.72 and 0.93 and 0.57 and 0.95 and 0.92
same,AA964541_DB71_seg0 normalized Real Time PCR expression,[2],1.35 and 0.74 and 1.29 and 0.9 and 1.19 and 0.44
same,AI045075_DB71_seg6 normalized Real Time PCR expression,[2],1.5 and 0.93 and 0 and 1.07 and 1.03 and 0.78
same,AI454051_DB71_seg0 normalized Real Time PCR expression,[2],0.9 and 0.75 and 0.57 and 0.4 and 0.54 and 0.79
same,AI502869_DB71_seg0 normalized Real Time PCR expression,[2],0.83 and 0.61 and 0.53 and 1.53 and 0.99 and 0.76
same,AW919147_DB71_seg0 normalized Real Time PCR expression,[2],1.72 and 0.72 (2×) and 0.76 and 1.1 and 0.99
same,BI293562_DB71_seg2 normalized Real Time PCR expression,[2],0.59 and 0.94 and 0.93 and 0.55 and 0.41
same,H31045_DB71_seg5 normalized Real Time PCR expression,[2],0.27 and 0.22 and 0.73 and 0.16 and 0.19 and 0.15
same,H31799_DB71_seg23 normalized Real Time PCR expression,[2],1.19 and 0.88 and 0.93 and 1 and 1.2
same,H31883_DB71_seg13 normalized Real Time PCR expression,[2],0.99 and 0.92 and 0.82 (2×) and 0.61 and 0.73
same,H33998_DB71_seg19 normalized Real Time PCR,[3],1.31 and 0.83 and 0.56 and 1.51 and 1.35 and 0.99
same,MUSCYCG1R_DB81_seg15-17 normalized Real Time PCR,[3],0.63 and 0.53 and 0.66 and 0.5 and 0.49 and 0.41
same,RATLRFI_DB71_seg9 normalized Real Time PCR,[3],0.98 and 1.54 and 1.09 and 2.74 and 1.72 and 0.27
same,RATRAB13X_DB71_seg11-13 normalized Real Time PCR,[3],1.16 and 0.7 and 0.77 and 2.79 and 1.14 and 1.03
same,RNU24174_DB71_seg8 normalized Real Time PCR,[3],0.47 (2×) and 0.5 and 0.74 and 0.37 and 0.26
same,W41270_DB81_seg11 normalized Real Time PCR,[3],1.24 and 0.67 and 1.19 and 0.46 and 0.68 and 0.57

# From patent US20160177395A1, “BIOMARKERS FOR THE PREDICTION OF RENAL INJURY” (priority 2007, published 2016)
